For data set [1], the system named is DNA methylation (CMV-EE210 cell line, silenced GFP transgene). The data set can be described thus: cell-based green fluorescent protein (GFP) assay for demethylating activity. As to conditions: concentration at which GFP expression level is reduced from g3 to g1/2; read-out: GFP50. The method, then:
The demethylating activity of the compounds was tested in a cell-based green fluorescent protein (GFP) assay. In the assay, a decrease in methylation resulting from exposure to a methylation inhibitor leads to GFP expression, and is readily scored.
The CMV-EE210 cell line containing the epigenetically silenced GFP transgene was used to assay for reactivation of GFP expression by flow cytometry. CMV-EE210 was made by transfecting NIH 3T3 cells with the pTR-UF/UF1/UF2 plasmid, which contained pBS(+) (Stratagene, Inc.) with a cytomegalovirus (CMV) promoter driving a humanized GFP gene adapted for expression in mammalian cells. After transfection, high-level GFP expressing cells were initially selected by FACS analysis and sorting using a MoFlo cytometer (Cytomation, Inc.).
Decitabine, a potent inhibitor of mammalian DNMT1, was used as a positive control. […] Cells were then seeded to 30% confluence (˜5000 cell/well) in a 96-well plate containing the test compounds, and grown for three days in at 37 ° C. in 5% CO2.
The plates were examined under a fluorescent microscope using a 450-490 excitation filter (13 filter cube, Leica, Deerfield Ill.). Wells were scored gl positive, g2 positive, or g3 if GFP was expressed in 10%, 30%, >75% of viable cells, respectively.
Table 1 provides the results of the test for decitabine and the test compounds as DNA methylation inhibitors. GFP50 is the concentration of an inhibitor at which the Green Fluorescent Protein (GFP) expression level is reduced from g3 to g1/2.

The nature of data set [2]: single dose pharmacokinetics in monkeys. The note with it: single dose 10 mg/kg.
A short description of data set [3]: stability in solvent formulations by HPLC. It is filed as physicochemical. The method, then:
The stability of a compound of the invention in various formulations under various storage conditions was investigated. Stability was determined by HPLC at the designated time intervals.

A short description of another data set: solubility. Format: physicochemical. An excerpt:
The good chemical stability taken together with the excellent solubility identified the glycol/glycerin/ethanol (65:25:10) system as a formulation for use in animal experiments.

A further data set relates to LINE-1 DNA methylation. In words: LINE-1 DNA methylation in blood samples. It is filed as in vivo, cynomolgus monkeys. As to conditions: monkey blood samples; repeat dose 3 mg/kg; until day 22; p<0.05. The method, then:
FIG. 3 illustrates the decrease in LINE1 methylation levels observed in blood samples drawn from cynomolgus monkeys on various days (D) after pretest.
In a repeat dose study, monkeys were dosed 3× weekly subcutaneously (3 mg/kg). […] (FIGS. 1 and 2.) Pharmacodynamic properties (not shown) were monitored and were acceptable. Blood samples were drawn periodically to assay LINE-1 DNA methylation.

In data set [4] the test system is murine mammary carcinoma cells TS/A. In words: anti-tumor effect in TS/A murine breast cancer model (Example 6). It is filed as in vivo, Balb/c mice. As to conditions: day 26 vs control mice; SGI-110 3 mg/kg SQ QDx5 days 1-5; anti-CTLA-4 mAb 100 μg at days 8, 11, 14 where combined. The method, then: TS/A is a murine mammary carcinoma originated from a moderately differentiated, weakly immunogenic mammary adenocarcinoma spontaneously arising in a 20-mo-old female BALB/c mouse.
The anti-mouse CTLA-4 was the CTLA-4 mAb 9H10, obtained from BioXCell (West Lebanon, N.H., USA), dosed at 100 μg/mouse in 200 μl (ip).
Balb/c mice (6/group) were injected SQ in the flank region with murine mammary carcinoma cells TS/A (2×10^5).
Control mice were injected with diluent for reconstitution. The effectiveness and tolerability of treatments was evaluated by tumor volume and body weight measurements, respectively.

Values after ≈ are worked out from the molar mass of the structure shown. Where two headings read alike, the source gives them in different places.

`Nc1ncn([C@H]2CC(OP(=O)(O)OC[C@H]3O[C@@H](n4cnc5c(=O)[nH]c(N)nc54)CC3O)[C@@H](CO)O2)c(=O)n1` (stereo partly shown): the EC50 in data set [1] came out at 400 nM.

For the compound `Nc1ncn([C@H]2CC(O)[C@@H](COP(=O)(O)OC3C[C@H](n4cnc5c(=O)[nH]c(N)nc54)O[C@@H]3CO)O2)c(=O)n1` (stereo partly shown), the EC50 in data set [1] is 700 nM.

`Nc1ncn([C@H]2C[C@H](O)[C@@H](CO)O2)c(=O)n1` [Decitabine, 5-aza-2′-deoxycytidine]: the EC50 in data set [1] was 500 nM. In addition, in data set [2], the area under the curve (AUC) (as a rule, concentration integrated over time) is 340 ng·h/mL and the Cmax (as a rule, the maximum level reached in the sampled fluid or tissue) is reported as 160 ng/mL.

In the case of `Nc1ncn([C@H]2C[C@H](OP(=O)(O)OC[C@H]3O[C@@H](n4cnc5c(=O)[nH]c(N)nc54)C[C@@H]3O)[C@@H](CO)O2)c(=O)n1` [SGI-110], the “% decomposition per hour” value worked out at 0.72 in data set [3] (DMSO/water (1:1, w/w), 25° C./60% relative humidity); 0.10 in data set [3] (DMSO/water (3:1, w/w), 25° C./60% relative humidity); 0.00032 in data set [3] (Propylene Glycol/Glycerin/Ethanol (65:25:10, w/w/w), 2-8° C.); 0.013 in data set [3] (Propylene Glycol/Glycerin/Ethanol (65:25:10, w/w/w), 25° C./60% relative humidity); 0.021 in data set [3] (Propylene glycol/Glycerin (70:30, v/v), room temperature); 0.14 in data set [3] (water, pH 7.0, 2-8° C.). In addition, the “% decomposition per hour” value in data set [3] (water, pH 7.0, room temperature) is reported as 1.1. Also, the Percent compound detected in data set [3] (DMSO/water (1:1, w/w), 25° C./60% relative humidity, 5 hours) is recorded as 90.1%; in data set [3] (DMSO/water (1:1, w/w), 25° C./60% relative humidity, time point 0), 93.7%; in data set [3] (DMSO/water (3:1, w/w), 25° C./60% relative humidity, 24 hours), 94.2%; in data set [3] (DMSO/water (3:1, w/w), 25° C./60% relative humidity, time point 0), 96.6%; in data set [3] (Propylene Glycol/Glycerin/Ethanol (65:25:10, w/w/w), 2-8° C., 3 months), 95.1%; in data set [3] (Propylene Glycol/Glycerin/Ethanol (65:25:10, w/w/w), 2-8° C., time point 0), 95.8%. For the same compound, the Percent compound detected in data set [3] (Propylene Glycol/Glycerin/Ethanol (65:25:10, w/w/w), 25° C./60% relative humidity, 3 months) was found to be 67.6%; in data set [3] (Propylene Glycol/Glycerin/Ethanol (65:25:10, w/w/w), 25° C./60% relative humidity, time point 0) it was 95.8%; in data set [3] (Propylene glycol/Glycerin (70:30, v/v), room temperature, 24 hours) it was 96.3%; in data set [3] (Propylene glycol/Glycerin (70:30, v/v), room temperature, time point 0), 96.8%; in data set [3] (water, pH 7.0, 2-8° C., 5 hours), 95.1%; in data set [3] (water, pH 7.0, 2-8° C., time point 0) it was 95.8%. The Percent compound detected was determined as 90.4% in data set [3] (water, pH 7.0, room temperature, 5 hours) and 95.8% in data set [3] (water, pH 7.0, room temperature, time point 0). For the same compound, in data set [3] (anhydrous DMSO), the “stability in anhydrous DMSO” value is listed as “stable”. Also, the improvement in stability in data set [3] (combined effects of cooling plus addition of ethanol to the propylene glycol/glycerin system) is listed as 66 fold; in data set [3] (propylene glycol/glycerin/ethanol (65:25:10), changing from warmer to colder storage conditions) it was 40 fold. Moreover, the solubility (usually the concentration that dissolves in the medium under given conditions) in the data set “solubility” (propylene glycol/glycerin/ethanol (65:25:10), organic solvent or mixture, read-out: maximum solubility) was 130 to 150 mg/mL (≈ 233 to 269 mM); in the data set “solubility” (water, aqueous, read-out: aqueous solubility) it was 20 mg/mL (≈ 35.9 mM). Further, the “LINE-1 DNA methylation vs level prior to initial dosing” value in the data set on LINE-1 DNA methylation is “Decreases”. For the same compound, the tumor growth inhibition in data set [4] stood at 62.9%. Also, in data set [2], the AUC is 1,469 ng·hr/mL.

The record behind these values is patent US20200009247A1, “DRUG COMBINATIONS” (ASTEX PHARMACEUTICALS, INC., priority 2013, published 2020).
